Laboratory results published in article PMC7316994, “In Vitro Pharmacological Profile of a New Small Molecule Bradykinin B2 Receptor Antagonist” (Frontiers in Pharmacology, 2020).

Key:
[1] = biological target: T1, endogenous human B2 receptor (Homo sapiens, UniProt P30411); assay: human isolated umbilical vein contractility assay, BK-induced contraction
T1 construct: BK-induced contraction at endogenous human B2 receptor in the umbilical vein model; from tissue; host or cells: human umbilical vein rings (donor cords after elective caesarean section)
T1 sequence (P30411 1-391): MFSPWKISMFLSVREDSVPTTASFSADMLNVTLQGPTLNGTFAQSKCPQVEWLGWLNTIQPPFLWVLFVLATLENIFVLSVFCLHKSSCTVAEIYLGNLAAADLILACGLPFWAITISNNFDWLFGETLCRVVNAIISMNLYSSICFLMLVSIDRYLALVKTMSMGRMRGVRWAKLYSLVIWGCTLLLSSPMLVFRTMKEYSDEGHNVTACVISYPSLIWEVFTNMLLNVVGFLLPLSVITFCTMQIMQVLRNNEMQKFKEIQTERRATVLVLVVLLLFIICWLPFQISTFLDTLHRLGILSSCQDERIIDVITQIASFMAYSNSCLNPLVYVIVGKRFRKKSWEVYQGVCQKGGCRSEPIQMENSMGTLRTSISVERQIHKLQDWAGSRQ

[2] = biological target: T2, Glutamate, metabotropic, mGlu5 (Homo sapiens, UniProt P41594); assay: radioligand binding (Table S2); conditions: [3H] Quisqualic acid, Human recombinant CHO-K1 cells
T2 construct: host or cells: CHO-K1 cells

Glucagon = Glucagon (Homo sapiens, UniProt P47871); assay: radioligand binding (Table S2); conditions: read-out: % Inhibition @ 10 µM
Neurokinin NK1 = Neurokinin NK1 (Homo sapiens, UniProt P25103); assay type: cell-based
Serotonin 5-HT1A = biological target: T3, Serotonin 5-HT1A (Homo sapiens, UniProt P08908); assay: radioligand binding (Table S2); conditions: [3H] 8-OH-DPAT, Human recombinant HEK-293 cells
T3 construct: host or cells: HEK-293 cells

Adrenergic α1A = Adrenergic α1A (Homo sapiens, UniProt P35348); assay: radioligand binding (Table S2); conditions: read-out: % Inhibition @ 10 µM
[3] = biological target: Nicotinic acetylcholine α1, bungarotoxin (Homo sapiens, UniProt P02708+P07510+Q07001); assay: biochemical; assay type: binding; conditions: read-out: % Inhibition @ 10 µM
Opioid µ (MOP) = biological target: T4, Opioid µ (MOP) (Homo sapiens, UniProt P35372); assay: radioligand binding (Table S2); conditions: [3H] DAMGO, Human recombinant HEK-293 cells
T4 construct: host or cells: HEK-293 cells

Lck kinase = Lck kinase (Homo sapiens, UniProt P06239); assay: enzyme assay (Table S2); assay type: biochemical; conditions: ATP + Ulight-PolyGAT (25 nM), LANCE
PDE4D2 = PDE4D2 (Homo sapiens, UniProt Q08499); assay: enzyme assay (Table S2); assay type: biochemical; conditions: [3H]cAMP + cAMP (0.5 µM), Scintillation counting
[4] = biological target: Gamma-aminobutyric acid GABAB1A (Homo sapiens, UniProt Q9UBS5); assay: radioligand binding (Table S2); conditions: read-out: % Inhibition @ 10 µM
[5] = biological target: T5, myc-tagged human B2 receptor (Homo sapiens, UniProt P30411); assay: antibody internalization assay, HEK 293a cells; assay type: cell-based; conditions: BK 100 nM; antagonist 1 nM to 1 μM, 15 min before BK
T5 construct: expressed in transfected cells
Procedure: B2 receptor-mediated transport of immune complexes constructed at the cell surface was previously reported ([Bawolak et al., 2011]). Intact HEK 293a cells stably expressing the N-terminally myc-tagged B2 receptor construction (human sequence, [Charest-Morin et al., 2015]) were treated with the monoclonal anti-myc antibody (clone 4A6) conjugated with AlexaFluor-488 (Millipore, dilution 1:500) added to the culture medium. Cells were further incubated at 37°C. Without rinsing, a selected antagonist or their DMSO vehicle was added 5 min later, and BK (100 nM) or its saline vehicle 15 min later. After an additional 30 min incubation period at 37°C, cells were rinsed 3 times with Hank's balanced salt solution (Multicell Wisent, St. Bruno, Canada) and photographed in transmission and epifluorescence using an Olympus BX51 microscope coupled to a CoolSnap HQ digital camera (filters for AlexaFluor 488: excitation 460–500 nm, emission 510–560 nm).

Prostacyclin IP (PGI2) = biological target: T6, Prostacyclin IP (PGI2) (Homo sapiens, UniProt P43119); assay: radioligand binding (Table S2); conditions: [3H] Iloprost, Human recombinant HEK-293 cells
T6 construct: host or cells: HEK-293 cells

Muscarinic M3 = Muscarinic M3 (Homo sapiens, UniProt P20309); assay: radioligand binding (Table S2); conditions: read-out: % Inhibition @ 10 µM
[6] = system: Chloride Cl- channel (GABA-gated); assay: radioligand binding (Table S2); conditions: [35S] TBPS, Rat cerebral cortex
[7] = biological target: T7, Norepinephrine transporter (Homo sapiens, UniProt P23975); assay: radioligand binding (Table S2); conditions: [3H] Nisoxetine, Human recombinant CHO cells
T7 construct: host or cells: CHO cells

[8] = biological target: T8, cynomolgus monkey B2 receptor (Macaca fascicularis, UniProt A0A7N9CWN6); assay: cell-based
T8 sequence (A0A7N9CWN6 1-391): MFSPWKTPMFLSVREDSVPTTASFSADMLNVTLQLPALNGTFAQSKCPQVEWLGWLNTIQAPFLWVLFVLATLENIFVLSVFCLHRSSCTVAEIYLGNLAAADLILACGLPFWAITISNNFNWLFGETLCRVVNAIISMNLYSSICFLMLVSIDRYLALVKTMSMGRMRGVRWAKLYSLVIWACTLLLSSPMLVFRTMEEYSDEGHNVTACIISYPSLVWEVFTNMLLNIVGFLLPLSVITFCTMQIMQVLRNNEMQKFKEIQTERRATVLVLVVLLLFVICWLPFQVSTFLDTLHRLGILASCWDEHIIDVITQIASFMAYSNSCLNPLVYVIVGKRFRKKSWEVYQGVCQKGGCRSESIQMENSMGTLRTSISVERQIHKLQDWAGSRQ

B2 receptor = biological target: T9, B2 receptor (Homo sapiens, UniProt P30411); assay: reversibility of antagonism after washout, umbilical vein; conditions: for EC50: BK EC50 (nM)
T9 sequence (P30411 1-391): T1 sequence (P30411 1-391)

Chain of Neurokinin NK1 (P25103 whole entry): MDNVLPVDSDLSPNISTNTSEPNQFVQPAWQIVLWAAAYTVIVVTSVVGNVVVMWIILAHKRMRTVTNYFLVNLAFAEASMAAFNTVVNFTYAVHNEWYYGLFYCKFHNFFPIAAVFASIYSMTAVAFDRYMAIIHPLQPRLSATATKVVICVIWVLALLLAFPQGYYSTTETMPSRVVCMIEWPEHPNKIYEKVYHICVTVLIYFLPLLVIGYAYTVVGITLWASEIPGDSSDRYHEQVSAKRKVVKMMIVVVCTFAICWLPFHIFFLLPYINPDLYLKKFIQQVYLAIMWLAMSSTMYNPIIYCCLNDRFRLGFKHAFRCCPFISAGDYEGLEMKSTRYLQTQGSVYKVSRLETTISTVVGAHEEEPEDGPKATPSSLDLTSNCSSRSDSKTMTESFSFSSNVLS
T3 sequence (P08908 whole entry): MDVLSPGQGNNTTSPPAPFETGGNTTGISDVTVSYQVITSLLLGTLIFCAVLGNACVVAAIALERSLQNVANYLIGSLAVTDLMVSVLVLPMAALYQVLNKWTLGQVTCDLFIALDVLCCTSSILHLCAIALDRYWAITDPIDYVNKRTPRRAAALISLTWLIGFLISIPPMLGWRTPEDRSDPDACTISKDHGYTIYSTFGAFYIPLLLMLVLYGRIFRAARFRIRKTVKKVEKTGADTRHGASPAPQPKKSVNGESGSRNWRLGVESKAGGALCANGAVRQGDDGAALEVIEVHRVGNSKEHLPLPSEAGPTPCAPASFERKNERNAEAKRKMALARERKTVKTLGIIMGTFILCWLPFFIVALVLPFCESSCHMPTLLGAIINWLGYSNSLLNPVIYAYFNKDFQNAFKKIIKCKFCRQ
T4 sequence (P35372 whole entry): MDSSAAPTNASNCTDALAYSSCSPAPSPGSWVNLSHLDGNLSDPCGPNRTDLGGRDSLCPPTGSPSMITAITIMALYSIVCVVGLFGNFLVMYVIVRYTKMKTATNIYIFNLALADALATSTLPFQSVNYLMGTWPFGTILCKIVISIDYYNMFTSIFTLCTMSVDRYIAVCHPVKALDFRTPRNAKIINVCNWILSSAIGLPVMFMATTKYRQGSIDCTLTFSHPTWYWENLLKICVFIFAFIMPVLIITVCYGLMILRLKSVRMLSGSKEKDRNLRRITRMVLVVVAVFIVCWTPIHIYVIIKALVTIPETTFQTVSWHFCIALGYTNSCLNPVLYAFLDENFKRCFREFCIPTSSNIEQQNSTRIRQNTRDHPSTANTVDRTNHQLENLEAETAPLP
Chain of Adrenergic α1A (P35348 whole entry): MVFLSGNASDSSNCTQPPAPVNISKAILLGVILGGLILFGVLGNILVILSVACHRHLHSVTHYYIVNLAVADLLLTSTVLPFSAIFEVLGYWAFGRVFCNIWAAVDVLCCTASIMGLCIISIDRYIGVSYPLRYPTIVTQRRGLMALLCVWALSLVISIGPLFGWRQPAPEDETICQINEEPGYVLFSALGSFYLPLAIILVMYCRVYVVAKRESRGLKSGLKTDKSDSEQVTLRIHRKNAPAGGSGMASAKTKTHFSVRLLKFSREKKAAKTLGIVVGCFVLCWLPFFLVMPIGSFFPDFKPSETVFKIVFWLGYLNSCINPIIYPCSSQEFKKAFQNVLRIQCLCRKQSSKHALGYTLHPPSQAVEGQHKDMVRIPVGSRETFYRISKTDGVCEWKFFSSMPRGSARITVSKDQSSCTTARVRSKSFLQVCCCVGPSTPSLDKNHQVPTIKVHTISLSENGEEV
T2 sequence (P41594 21-1212): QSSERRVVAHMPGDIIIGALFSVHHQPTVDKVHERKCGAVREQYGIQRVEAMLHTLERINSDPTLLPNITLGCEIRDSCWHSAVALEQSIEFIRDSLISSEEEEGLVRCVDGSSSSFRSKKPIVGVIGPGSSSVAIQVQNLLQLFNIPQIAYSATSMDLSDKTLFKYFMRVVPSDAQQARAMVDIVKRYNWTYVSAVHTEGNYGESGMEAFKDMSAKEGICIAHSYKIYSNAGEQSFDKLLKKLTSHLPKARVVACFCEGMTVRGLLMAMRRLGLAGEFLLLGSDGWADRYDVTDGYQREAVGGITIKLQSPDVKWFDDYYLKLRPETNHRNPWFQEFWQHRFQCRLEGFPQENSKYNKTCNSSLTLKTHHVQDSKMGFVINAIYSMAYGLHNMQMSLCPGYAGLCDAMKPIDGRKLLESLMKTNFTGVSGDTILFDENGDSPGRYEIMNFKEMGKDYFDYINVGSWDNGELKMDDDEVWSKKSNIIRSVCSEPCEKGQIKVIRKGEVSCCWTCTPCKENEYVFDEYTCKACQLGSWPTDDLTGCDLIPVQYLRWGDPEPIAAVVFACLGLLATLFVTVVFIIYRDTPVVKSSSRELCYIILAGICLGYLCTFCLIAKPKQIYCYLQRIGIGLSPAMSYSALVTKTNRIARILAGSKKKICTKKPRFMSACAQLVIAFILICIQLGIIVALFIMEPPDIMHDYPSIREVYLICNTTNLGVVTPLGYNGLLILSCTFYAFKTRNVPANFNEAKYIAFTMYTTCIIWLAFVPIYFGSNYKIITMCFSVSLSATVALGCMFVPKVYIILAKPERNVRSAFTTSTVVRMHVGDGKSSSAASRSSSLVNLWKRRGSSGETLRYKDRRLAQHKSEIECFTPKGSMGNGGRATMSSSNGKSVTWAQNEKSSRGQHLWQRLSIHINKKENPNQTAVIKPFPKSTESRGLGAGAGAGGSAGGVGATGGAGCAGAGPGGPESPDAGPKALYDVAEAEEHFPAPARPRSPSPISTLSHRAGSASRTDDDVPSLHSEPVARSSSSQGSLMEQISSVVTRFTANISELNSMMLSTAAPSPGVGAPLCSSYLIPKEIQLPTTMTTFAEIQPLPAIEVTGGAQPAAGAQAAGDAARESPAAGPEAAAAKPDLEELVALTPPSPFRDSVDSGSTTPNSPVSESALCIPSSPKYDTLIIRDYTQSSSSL
Chain of Muscarinic M3 (P20309 whole entry): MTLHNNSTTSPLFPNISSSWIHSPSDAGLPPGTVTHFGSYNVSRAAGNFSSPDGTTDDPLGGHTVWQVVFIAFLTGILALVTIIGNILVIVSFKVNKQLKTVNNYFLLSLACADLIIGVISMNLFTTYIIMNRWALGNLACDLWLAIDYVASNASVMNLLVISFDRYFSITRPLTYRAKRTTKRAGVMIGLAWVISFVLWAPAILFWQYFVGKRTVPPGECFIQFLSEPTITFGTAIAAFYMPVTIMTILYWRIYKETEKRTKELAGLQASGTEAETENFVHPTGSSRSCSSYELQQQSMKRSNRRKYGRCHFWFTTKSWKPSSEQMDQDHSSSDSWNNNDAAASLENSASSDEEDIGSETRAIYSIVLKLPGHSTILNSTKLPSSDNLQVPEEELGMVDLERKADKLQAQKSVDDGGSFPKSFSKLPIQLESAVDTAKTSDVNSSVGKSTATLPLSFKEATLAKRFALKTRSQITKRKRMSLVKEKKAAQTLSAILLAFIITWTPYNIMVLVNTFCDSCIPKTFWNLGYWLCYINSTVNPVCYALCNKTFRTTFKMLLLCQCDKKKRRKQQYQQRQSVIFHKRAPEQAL
T7 sequence (P23975 whole entry): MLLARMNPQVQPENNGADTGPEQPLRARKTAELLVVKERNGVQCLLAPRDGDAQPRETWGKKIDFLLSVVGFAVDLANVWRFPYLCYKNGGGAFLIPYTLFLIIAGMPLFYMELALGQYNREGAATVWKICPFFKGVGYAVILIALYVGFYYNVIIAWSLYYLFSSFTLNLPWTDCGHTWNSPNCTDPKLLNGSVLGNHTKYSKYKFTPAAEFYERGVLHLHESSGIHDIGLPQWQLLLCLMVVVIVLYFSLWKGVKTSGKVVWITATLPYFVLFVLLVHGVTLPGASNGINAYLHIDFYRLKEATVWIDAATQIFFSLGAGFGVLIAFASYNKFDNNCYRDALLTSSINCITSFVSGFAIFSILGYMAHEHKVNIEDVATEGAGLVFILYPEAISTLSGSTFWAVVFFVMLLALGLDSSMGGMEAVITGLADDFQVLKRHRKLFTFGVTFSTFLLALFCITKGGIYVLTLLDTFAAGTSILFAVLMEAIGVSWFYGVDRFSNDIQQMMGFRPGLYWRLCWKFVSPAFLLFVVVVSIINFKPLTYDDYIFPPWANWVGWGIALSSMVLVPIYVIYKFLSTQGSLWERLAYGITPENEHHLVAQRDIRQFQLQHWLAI
T6 sequence (P43119 whole entry): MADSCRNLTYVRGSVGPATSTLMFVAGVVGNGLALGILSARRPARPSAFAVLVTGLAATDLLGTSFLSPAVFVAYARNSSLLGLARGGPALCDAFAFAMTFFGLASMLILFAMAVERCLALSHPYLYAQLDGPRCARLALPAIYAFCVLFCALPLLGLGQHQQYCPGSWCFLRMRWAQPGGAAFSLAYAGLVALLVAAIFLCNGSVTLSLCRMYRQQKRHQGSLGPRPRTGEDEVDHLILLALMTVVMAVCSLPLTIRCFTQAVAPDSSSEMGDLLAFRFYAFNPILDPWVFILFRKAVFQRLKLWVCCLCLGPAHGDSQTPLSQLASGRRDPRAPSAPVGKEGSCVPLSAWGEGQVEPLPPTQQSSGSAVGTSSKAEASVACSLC
Chain of Glucagon (P47871 26-477): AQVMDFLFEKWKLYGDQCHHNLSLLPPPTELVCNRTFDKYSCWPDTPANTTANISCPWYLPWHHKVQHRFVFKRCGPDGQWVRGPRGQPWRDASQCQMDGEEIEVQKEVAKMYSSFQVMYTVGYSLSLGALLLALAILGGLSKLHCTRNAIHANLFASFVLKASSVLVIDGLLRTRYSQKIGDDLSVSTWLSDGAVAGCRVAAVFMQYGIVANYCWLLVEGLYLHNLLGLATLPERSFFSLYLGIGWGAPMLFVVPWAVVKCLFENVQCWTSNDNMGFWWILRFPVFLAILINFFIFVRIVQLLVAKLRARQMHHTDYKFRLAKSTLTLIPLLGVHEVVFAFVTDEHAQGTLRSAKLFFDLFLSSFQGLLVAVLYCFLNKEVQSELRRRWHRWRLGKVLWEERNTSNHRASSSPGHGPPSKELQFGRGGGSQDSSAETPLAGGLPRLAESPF

Structure (SMILES): Cc1cc(-c2ncnn2C)c2cccc(OCc3c(Cl)cc(F)cc3[C@H](C)NC(=O)COC(F)F)c2n1 [Compound 3, (S)-N-(1-(3-chloro-5-fluoro-2-((2-methyl-4-(1-methyl-1H-1,2,4-triazol-5-yl)quinolin-8-yloxy)methyl)phenyl)ethyl)-2-(difluoromethoxy)acetamide]
- Kb [1]: 0.214 nM
- type of antagonism of BK ([1]; BK concentration-effect curves, Emax): competitive
- pA2 ([1]; Schild plot, Pharm/PCS, ± S.E.M. where given): 9.67 ± 0.42
- Schild plot slope ([1]; Schild regression, Pharm/PCS, ± S.E.M. where given): −0.76
- Maximal BK-induced response in absolute force units ± S.E.M. ([1]; antagonist 1 nM, vehicle for Compound 3 1.52 ± 0.20): 1.75 ± 0.32 grams-weight
- Maximal BK-induced response in absolute force units ± S.E.M. ([1]; antagonist 10 nM, vehicle: Icatibant 1.90, Compound 1 […], Compound 2 2.25, Compound 3 1.52): 2.29 ± 0.24 grams-weight
- Maximal BK-induced response in absolute force units ± S.E.M. ([1]; antagonist 100 nM, vehicle: Icatibant 1.90, Compound 1 […], Compound 2 2.25, Compound 3 1.52): 2.42 ± 0.36 grams-weight
- Maximal BK-induced response in absolute force units ± S.E.M. ([1]; antagonist 1 μM, vehicle: Icatibant 1.90, Compound 1 […], Compound 2 2.25, Compound 3 1.52): 1.25 ± 0.14 grams-weight
- pA2 value converted into nM ([1]; potency from pA2): 0.21 nM
- inhibition at 10 µM [2]: -8%
- inhibition at 10 µM (Glucagon): -0.6%
- % of reference agonist response @ 10 µM (agonist effect) (Neurokinin NK1; 10 µM, reference [Sar9,Met(O2)11]-SP (30 nM)): -5.2%
- IC50 (Neurokinin NK1; [Sar9,Met(O2)11]-SP (1 nM), read-out: IC50 (µM), functional antagonism): 17 µM
- Kb (Neurokinin NK1; [Sar9,Met(O2)11]-SP (1 nM), read-out: Kb (µM), functional antagonism): 2.4 µM
- inhibition at 10 µM (Serotonin 5-HT1A): -4%
- inhibition at 10 µM (Adrenergic α1A): 13.3%
- inhibition at 10 µM [3]: -1%
- inhibition at 10 µM (Opioid µ (MOP)): 13.6%
- inhibition at 10 µM (Lck kinase): 9.5%
- inhibition at 10 µM (PDE4D2): 4.4%
- inhibition at 10 µM [4]: 8%
- concentration with clear efficacy in inhibiting BK-induced endocytosis [5]: ≥ 100 nM
- inhibition at 10 µM (Prostacyclin IP (PGI2)): -5%
- inhibition at 10 µM (Muscarinic M3): 4.2%
- % Inhibition @ 10 µM [6]: 32.9%
- inhibition at 10 µM [7]: 0.9%
- IC50 [8]: 6.25 nM
- Kb [8]: 1.36 nM
- reversibility of antagonism after washout (B2 receptor; 100 nM): partial or slow reversibility
- reversibility of antagonism after washout (B2 receptor; 1 and 10 nM): fully reversible
- EC50 (B2 receptor; after washout, 5 h, washout after Compound 3 1 nM, 5 h, vehicle washout 20.8 nM): 22 nM
- EC50 (B2 receptor; after washout, 5 h, washout after Compound 3 10 nM, 5 h, vehicle washout 20.8 nM): 38.5 nM
- EC50 (B2 receptor; after washout, 5 h, washout after Compound 3 100 nM, 5 h, vehicle washout 11.7 nM): 84.1 nM
- EC50 (B2 receptor; antagonist present, 3 h, Compound 3 1 nM, vehicle 3 h 18.7 nM): 67.4 nM
- EC50 (B2 receptor; antagonist present, 3 h, Compound 3 10 nM, vehicle 3 h 18.7 nM): 225 nM
- EC50 (B2 receptor; antagonist present, 3 h, Compound 3 100 nM, vehicle 3 h 7.5 nM): 713 nM
